One series has as its target T1, ZIKV NS2B-NS3 protease (Zika virus, UniProt A0A024B7W1).
T1 construct: directed at the co-expressed ZIKV NS2B-NS3 protease
As to the kind of experiment: ZIKV NS2B-NS3 protease biochemical FRET assay.

The next series has as its target T2, WNV NS2B-NS3 protease (West Nile virus, UniProt P06935).
T2 construct: some activity against the WNV NS2B-NS3 protease
The experiment in a line: WNV NS2B-NS3 protease biochemical inhibition.

The subject of another series is ZIKV. As to the kind of experiment: ZIKV antiviral assay (virus-induced cytopathy) in Vero E6 cells with P-gp inhibitor. It is filed as cell-based. Conditions: Zika virus, Vero C1008, 168 h, read-out: ZIKV EC50. The procedure: (§1) Figure 5. (A) Further characterization of ASAP-0027808. Papp was determined in MDR1-MDCK cells. Antiviral assays were performed in Vero E6 cells in a 7-day infection using 0.5 uM CP100356 as a P-gp inhibitor (see Supporting Information for more details). (B) The compound was successfully crystallized with ZIKV NS2B-NS3. ASAP-0016806 and ASAP-0027808 both appear to interact with the same residues (catalytic triad His51/Asp75/Ser135 colored yellow, other key residues Tyr161, NS2B Ser81, and NS2B Asp83 colored green). (C) Dose-dependent suppression of ZIKV-induced cytopathy in VeroE6 cells (n=2); no changes to cell viability of uninfected cells treated with the inhibitor was observed. Cells were co-treated with 0.5 μM CP100356 (as P-gp inhibitor). TEXT PRINTED IN THE PICTURE: (A) ASAP-0027808: ZIKV NS2B-NS3 Ki (μM): 0.090; ZIKV EC50 / CC50 (μM): 4.6 / >50; WNV NS2B-NS3 Ki (μM): 2.9; MW (g/mol): 313; CLint,app, HLM (μL/min/mg): < 10; MDR1-MDCK Papp A→B, B→A (10^-6 cm/sec): 2.0 ,11.0; Kinetic solubility (pH 7.4, μM): 279; LogD: 0.9

A short description of series [1]: Cytotoxicity in uninfected Vero E6 cells. It is filed as cell-based. As to conditions: African green monkey; Vero E6 cells, 0.5 uM CP100356 as P-gp inhibitor; read-out: CC50. The procedure: as §1
Another series can be described thus: MDR1-MDCK permeability. It is filed as in vitro ADME. Conditions: dog; for Papp B→A: MDCK-MDR1, B→A; for Papp A→B: MDCK-MDR1, A→B. The method, then: as §1
For another series, the system named is Vero E6 cells. The experiment in a line: Cytotoxicity in uninfected Vero E6 cells. In kind it is cell-based. As to conditions: Vero E6 cells treated with a P-gp inhibitor, up to 50 μM. The procedure:
as §1

Another series concerns the target T3, urokinase (Homo sapiens, UniProt P00749).
T3 construct: Eurofins
The experiment in a line: Eurofins human protease selectivity panel. It is filed as biochemical. Conditions: read-out: inhibitory activity against urokinase. An excerpt: Upon crystallization in the active site of ZIKV NS2B-NS3, we noted the compound participating with most of the same residues as ASAP-0016806 (Figure 5B): an aromatic interaction with Tyr161, a hydrogen-bonding interaction with Gly151, an aromatic interaction with His51, and an electrostatic interaction with Asp83 (with a possible additional hydrogen bonding interaction to Ser81).

The nature of the next series: Kinetic solubility. Conditions: pH 7.4.
The nature of series [2]: Microsomal clearance, HLM. As to conditions: human, microsomes.

Each structure is given as a SMILES string. A value given as a limit tells only on which side of the number the result lay.

T1 sequence (A0A024B7W1 1503-1680): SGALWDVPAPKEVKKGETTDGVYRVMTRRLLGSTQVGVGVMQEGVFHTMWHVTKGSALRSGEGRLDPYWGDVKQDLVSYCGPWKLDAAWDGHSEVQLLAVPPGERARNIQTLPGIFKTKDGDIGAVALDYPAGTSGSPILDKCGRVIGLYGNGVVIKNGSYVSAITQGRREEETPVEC
T1 sequence (A0A024B7W1 1425-1464): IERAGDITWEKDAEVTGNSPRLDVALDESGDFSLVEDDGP
T2 sequence (P06935 1424-1463): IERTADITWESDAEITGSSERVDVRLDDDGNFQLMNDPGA
T2 sequence (P06935 1502-1679): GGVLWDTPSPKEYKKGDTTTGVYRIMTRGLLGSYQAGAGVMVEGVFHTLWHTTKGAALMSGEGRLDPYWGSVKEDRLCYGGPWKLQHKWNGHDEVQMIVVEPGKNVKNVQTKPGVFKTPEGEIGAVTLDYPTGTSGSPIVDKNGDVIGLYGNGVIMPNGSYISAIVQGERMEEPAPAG

Regarding `Clc1cc(CNc2ccc3c(c2)CNC3)c2cn[nH]c2c1` [ASAP-0029525], the Ki at ZIKV NS2B-NS3 protease (ZIKV NS2B-NS3 Ki) was found to be 2900 nM; on WNV NS2B-NS3 protease, 43000 nM. Besides, in the series on ZIKV, the EC50 is 17900 nM. In addition, the CC50 in series [1] is 29800 nM.
Consider `CC(C)NC(=O)[C@@H](Nc1ccc2c(c1)CNC2)c1cc(Cl)cc2[nH]ncc12` [ASAP-0029974], for which the Ki worked out at 48 nM on ZIKV NS2B-NS3 protease (ZIKV NS2B-NS3 Ki) and 360 nM on WNV NS2B-NS3 protease. Further, in the series with ZIKV, the EC50 was found to be 5700 nM. Besides, the CC50 in series [1] was greater than 50000 nM. For the same compound, the logD in the series “LogD” was 0.5.
On to `CC(C)NC(=O)[C@@H](Nc1ccc2c(c1)CNC2)c1cc(Cl)cc2[nH]ncc12` [ASAP-0029000], for which the results for the Ki at ZIKV NS2B-NS3 protease (ZIKV NS2B-NS3 Ki) and on WNV NS2B-NS3 protease were 77 nM and 320 nM, respectively. The compound further returned a Papp B→A in “MDR1-MDCK permeability” of 2.2 ×10⁻⁶ cm/s. Moreover, the logD in “LogD” stood at 0.5.
The compound `Cc1cc(C(Nc2ccc3c(c2)CNC3)C(=O)NCC(F)F)cc(C(F)(F)F)c1` (centres unmarked) [ASAP-0031651] registered a Ki on ZIKV NS2B-NS3 protease (Ki, ZIKV NS2B-NS3) of 7.8 nM. The EC50 in the series with ZIKV was found to be 450 nM.
With `N#C[C@@H](Nc1ccc2c(c1)CNC2)c1cc(Cl)cc2[nH]ncc12` [ASAP-0028904], the Ki on ZIKV NS2B-NS3 protease (ZIKV NS2B-NS3 Ki) is 100 nM; on WNV NS2B-NS3 protease, 18000 nM. This compound also gave a Papp A→B in the series “MDR1-MDCK permeability” of 1.1 ×10⁻⁶ cm/s. For the same compound, the logD in “LogD” worked out at 0.9.
On to `OCC#C[C@@H](Nc1ccc2c(c1)CNC2)c1cc(Cl)cc2[nH]ncc12` [ASAP-0028990], for which the Ki on ZIKV NS2B-NS3 protease (ZIKV NS2B-NS3 Ki) worked out at 990 nM; at WNV NS2B-NS3 protease it was 21000 nM. The same compound yielded a Papp A→B in “MDR1-MDCK permeability” of 0.59 ×10⁻⁶ cm/s. Besides, the logD in the series “LogD” came to 0.5.
With `O=C(Nc1ccc2c(c1)CNC2)c1cc(Cl)cc2[nH]ncc12` [ASAP-0027808], the “Ligand efficiency (LE)” value at ZIKV NS2B-NS3 protease (Ligand efficiency = pKi / heavy atom count) is 0.452. In addition, the Ki on ZIKV NS2B-NS3 protease (ZIKV NS2B-NS3 Ki) was found to be 90 nM. On WNV NS2B-NS3 protease, this compound showed a Ki of 2900 nM. Moreover, in the series with ZIKV, the 50% effective concentration (EC50) is 4600 nM. In addition, in series [1], the CC50 is greater than 50000 nM. The cytotoxicity result with Vero E6 cells is “no apparent cytotoxicity”. On urokinase, the inhibition at 10 µM came out at 21%. Further, in the series “MDR1-MDCK permeability”, the Papp A→B was 2 ×10⁻⁶ cm/s and the Papp B→A came out at 11 ×10⁻⁶ cm/s. The logD in “LogD” was 0.9. The Kinetic solubility in “Kinetic solubility” stood at 279 µM. This compound registered a microsomal CLint in series [2] of less than 10 µL/min/mg.

The values are drawn from article doi:10.1101/2025.06.19.660642, “Discovery of orally bioavailable Zika and West Nile Virus antiviral compounds targeting the NS2B-NS3 protease” (bioRxiv, 2025).
